*1 amine or outer side, *2 acyl side, *3 side chain or, on linkers, in order; H or OH if unused. Where a SMILES comes first, the peptide text is derived from it. [ ]: non-standard residue; d: D form. dAla(ψthiazole) = C[C@@H](N[*:1])c1nc(C(=O)[*:2])cs1; Trp(4-OMe) = COc1cccc2[nH]cc(C[C@H](N)C(=O)O)c12; dAbu = CC[C@@H](N)C(=O)O; Dha = C=C(N)C(=O)O; Sar = CNCC(=O)O
Target: T1, EF-G1 S459F (Pseudomonas aeruginosa, UniProt Q9HWD2, S459F)
T1 construct: P. aeroginosa fusA1 encoding full-length EF-G was PCR amplified from pET28a-PaEFG-Nhis; made in house; host or cells: E. coli BL21 (DE3)
Assay: Surface plasmon resonance (SPR), EF-G1 S459F
Format: binding, P. aeruginosa
Conditions: Biacore, data not shown
Source text: For wild type P. aeruginosa EF-G1 expression, the fusA gene was amplified from genomic DNA of P. aeruginosa PAO1 K767 using the primer pair EFG-F/EFG-R: […]/[…]. The product was digested with NdeI and HindIII and ligated into similarly digested pET28a to generate pET28a-PaEFG-Nhis. This plasmid was then used for site directed mutagenesis to introduce the nucleotide change encoding EF-G1S459F (pET28a-PaEFGS459F-Nhis). The plasmids were then transformed into an E. coli strain BL21 (DE3) for expression. A single colony was used to inoculate 10 ml LB broth containing 50 µg/ml kanamycin which was incubated at 37°C overnight, with shaking at 250 rpm. The overnight culture was then diluted 100-fold into 1 liter fresh LB broth containing 50 µg/ml kanamycin. After growing at 37°C with vigorous shaking for about 2.5 hours, expression of P. aeruginosa EF-G1 or EF-G1S459F was then induced by adding 0.1 mM IPTG, with further culture incubation at 18°C for 24 hours. Cells were then pelleted by centrifugation at 5,000 rpm with Sorvall SLC-6000 rotor and stored at −20°C. Cell pellets were then resuspended in 20 ml of BugBuster solution (Novagen) and incubated at room temperature for 20 minutes. […] The protein in the fractions was monitored by UV absorbance at 280 nm. […] Protein concentration was determined by Nano-drop spectrophotometer. […]

T1 sequence (Q9HWD2 whole entry S459F): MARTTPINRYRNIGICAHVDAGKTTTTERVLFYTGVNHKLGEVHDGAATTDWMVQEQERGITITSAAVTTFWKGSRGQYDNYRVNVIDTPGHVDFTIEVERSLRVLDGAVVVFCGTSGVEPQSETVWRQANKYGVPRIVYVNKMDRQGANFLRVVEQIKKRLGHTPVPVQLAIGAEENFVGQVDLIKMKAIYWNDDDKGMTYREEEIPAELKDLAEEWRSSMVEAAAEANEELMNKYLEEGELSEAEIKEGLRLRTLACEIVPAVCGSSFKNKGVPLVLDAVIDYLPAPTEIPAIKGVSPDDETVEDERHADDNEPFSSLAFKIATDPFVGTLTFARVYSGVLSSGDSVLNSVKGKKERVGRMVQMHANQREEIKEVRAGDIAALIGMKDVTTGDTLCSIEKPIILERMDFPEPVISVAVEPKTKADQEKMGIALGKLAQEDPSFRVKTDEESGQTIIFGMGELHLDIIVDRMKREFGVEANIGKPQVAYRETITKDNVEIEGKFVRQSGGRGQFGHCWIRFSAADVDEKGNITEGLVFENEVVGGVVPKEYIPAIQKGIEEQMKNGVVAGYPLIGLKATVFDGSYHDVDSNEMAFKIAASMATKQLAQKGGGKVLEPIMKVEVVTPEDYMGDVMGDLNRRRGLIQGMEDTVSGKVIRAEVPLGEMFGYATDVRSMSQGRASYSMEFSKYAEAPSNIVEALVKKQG

Which “Binding by SPR (in words)” value does the source give for `C=C1NC(=O)CN(C)C(=O)CNC(=O)[C@H](Cc2c[nH]c3cccc(OC)c23)NC(=O)[C@H](Cc2c[nH]c3ccccc23)NC(=O)c2csc(n2)[C@@H](C)NC(=O)[C@@H](CC)NC1=O` [argyrin B] (cyclo([dAbu][dAla(ψthiazole)]W[Trp(4-OMe)]G[Sar][Dha])) here?
The value was “failed to bind argyrin B sufficiently to generate a Kd value”.
